# Measured values published in patent US20130280260A1, “OSTEOCLASTOGENESIS INHIBITOR CONTAINING ANTI-VDAC ANTIBODY” (TOKYO WOMEN'S MEDICAL UNIVERSITY, priority 2010, published 2013).
# Columns and labels:
# human osteoclasts = test: Inhibition of osteoclast differentiation and osteoclastogenesis in human osteoclastogenesis culture system (monocytes with M-CSF and RANKL); assay type: cell-based; conditions: 0.2 μg/mL or 2 μg/mL, in comparison with the control
# Procedure: • (1) Preparation of Monoclonal Antibodies against Cell Membrane Proteins of Osteoclasts • (i) Peripheral blood monocytes from five healthy subjects were cultured in flasks in the presence of M-CSF and RANKL for approximately 2 weeks and differentiated into osteoclasts. After trypsin and EDTA were added to the human osteoclasts, the resulting cells were cultured at 37° C. for 15 minutes, and then detached with a cell scraper and harvested. This operation was repeated to collect cell membranes of human mature osteoclasts. Membrane proteins were prepared from the human mature osteoclasts using a RIPA buffer. • (ii) Using the obtained membrane proteins as an antigen, mice were immunized. Spleen cells of the mice thus immunized were fused with myeloma cells, and four types of hybridomas were obtained. Screening was performed by ELISA using a plate on which the osteoclast membrane proteins were immobilized. The wells of the positive result were further examined for a reactivity to human osteoclasts and a nonspecific reactivity to monocytes. After cloning, 5D1/2B9/2H10 and 5D1/3F3/2C8 were obtained as final lines. • (iii) From these final lines, monoclonal antibodies were obtained. • (2) Purification of Proteins Bound to Antibody Column
# • (1) Into the human osteoclastogenesis culture system obtained in step 1. […]
# [1] = system: monoclonal antibody 20B12 (anti-VDAC1); test: Epitope analysis by ELISA using synthetic peptides covering VDAC1; assay type: binding, mouse; conditions: for OD450-595: 20B12 at 5 μg/mL, average of two wells; for reaction between peptide and antibody (ELISA): text summary of Tables 2, 3
# Procedure: In order to examine an epitope for the anti-VDCA monoclonal antibody (VDAC1(20B12), SANTA CRUZ Biotechnology, Inc., sc-58649, mouse monoclonal IgG2b, 100 μg/ml), an analysis was conducted by ELISA using synthetic peptides (Table 1). As the synthetic peptides, 28 types of peptides were prepared so as to cover the VDAC1 completely.
# The synthetic peptides were fixed to plates by an avidin-biotin method as follows.
# The synthetic peptides (325 nmol/peptide) were each dissolved in 250 μL of DMSO, and then diluted 6400-fold with Wash Buffer (PBS containing 0.05% Tween-20). After a streptavidin-coated plate was washed with Wash Buffer (350 μL, 3 times), 100 μL of the peptide thus diluted was added into the plate, which was left standing in cold storage overnight.
# ELISA was performed using the plate to which the peptide was fixed in 7.1, and antibodies bound to the peptide were detected. The detection procedure was as follows. Two wells were used for one condition, and the average was taken. • (1) The liquid in wells was taken out. After washing with Wash Buffer (350 μL, three times), 200 μL of Blocking Buffer (SynBlock) was added to the wells, which were shaken at 37° C. for 1 hour. • (2) The liquid in the wells was taken out, and 50 μL of the monoclonal antibody 20B12 (diluted to 5 μg/mL with Blocking Buffer) was added to the wells, which were shaken at 37° C. for 1 hour. • (3) The liquid in the wells was taken out. After washing with Wash Buffer, 50 μL of HRP-labeled Goat anti Mouse IgG (Fc) (the original solution had been diluted 25000-fold with Wash Buffer) was added to the wells, which were shaken at 37° C. for 1 hour. • (4) The liquid in the wells was taken out, and the plate was washed. Then, 60 μL of a staining solution was added to the plate, which was incubated at 37° C. for 30 minutes. After 60 μL of a stop solution was added thereto to stop the color reaction, the absorbance at 450 nm (Reference 595 nm) was measured with a plate reader.
Molecule,osteoclastogenesis (total area of osteoclasts) (human osteoclasts),OD450-595 ([1]; first time),OD450-595 ([1]; second time),reaction between peptide and antibody (ELISA) [1]
NCCCC(O)(P(=O)(O)O)P(=O)(O)O [alendronate sodium hydrate],significantly inhibited,–,–,–
"ACFSAKVNNS SLIGLGYTQT (ACFSAKVNNSSLIGLGYTQT) [Peptide 24, synthetic peptide covering part of VDAC1]",–,1.284,1.336,significant
"AGYQMNFETA KSRVTQSNFA (AGYQMNFETAKSRVTQSNFA) [Peptide 16, synthetic peptide covering part of VDAC1]",–,0.388,0.444,–
"ALLDGKNVNA GGHKLGLGLE (ALLDGKNVNAGGHKLGLGLE) [Peptide 27, synthetic peptide covering part of VDAC1]",–,0.290,0.371,–
"ALVLGYEGWL AGYQMNFETA (ALVLGYEGWLAGYQMNFETA) [Peptide 15, synthetic peptide covering part of VDAC1]",–,0.337,0.373,–
"EHINLGCDMD FDIAGPSIRG (EHINLGCDMDFDIAGPSIRG) [Peptide 13, synthetic peptide covering part of VDAC1]",–,0.369,0.322,–
"FDIAGPSIRG ALVLGYEGWL (FDIAGPSIRGALVLGYEGWL) [Peptide 14, synthetic peptide covering part of VDAC1]",–,0.316,0.385,–
"FTEKWNTDNT LGTEITVEDQ (FTEKWNTDNTLGTEITVEDQ) [Peptide 8, synthetic peptide covering part of VDAC1]",–,0.341,0.411,–
"FTSSGSANTE TTKVTGSLET (FTSSGSANTETTKVTGSLET) [Peptide 5, synthetic peptide covering part of VDAC1]",–,0.311,0.351,–
"GGHKLGLGLE FQA (GGHKLGLGLEFQA) [Peptide 28, synthetic peptide covering part of VDAC1]",–,0.418,0.455,–
"GGSIYQKVNK KLETAVNLAW (GGSIYQKVNKKLETAVNLAW) [Peptide 20, synthetic peptide covering part of VDAC1]",–,0.362,0.398,–
"GKSARDVFTK GYGFGLIKLD (GKSARDVFTKGYGFGLIKLD) [Peptide 2, synthetic peptide covering part of VDAC1]",–,0.363,0.421,–
"GYGFGLIKLD LKTKSENGLE (GYGFGLIKLDLKTKSENGLE) [Peptide 3, synthetic peptide covering part of VDAC1]",–,0.280,0.354,–
"HTNVNDGTEF GGSIYQKVNK (HTNVNDGTEFGGSIYQKVNK) [Peptide 19, synthetic peptide covering part of VDAC1]",–,0.300,0.312,–
"IAAKYQIDPD ACFSAKVNNS (IAAKYQIDPDACFSAKVNNS) [Peptide 23, synthetic peptide covering part of VDAC1]",–,0.276,0.357,–
"KLETAVNLAW TAGNSNTRFG (KLETAVNLAWTAGNSNTRFG) [Peptide 21, synthetic peptide covering part of VDAC1]",–,0.235,0.270,–
"KSRVTQSNFA VGYKTDEFQL (KSRVTQSNFAVGYKTDEFQL) [Peptide 17, synthetic peptide covering part of VDAC1]",–,0.285,0.308,–
"KYRWTEYGLT FTEKWNTDNT (KYRWTEYGLTFTEKWNTDNT) [Peptide 7, synthetic peptide covering part of VDAC1]",–,0.321,0.371,–
"LARGLKLTFD SSFSPNTGKK (LARGLKLTFDSSFSPNTGKK) [Peptide 10, synthetic peptide covering part of VDAC1]",–,0.360,0.351,–
"LGTEITVEDQ LARGLKLTFD (LGTEITVEDQLARGLKLTFD) [Peptide 9, synthetic peptide covering part of VDAC1]",–,0.286,0.338,–
"LKPGIKLTLS ALLDGKNVNA (LKPGIKLTLSALLDGKNVNA) [Peptide 26, synthetic peptide covering part of VDAC1]",–,0.268,0.367,–
"LKTKSENGLE FTSSGSANTE (LKTKSENGLEFTSSGSANTE) [Peptide 4, synthetic peptide covering part of VDAC1]",–,0.312,0.423,–
"MAVPPTYADL GKSARDVFTK (MAVPPTYADLGKSARDVFTK) [Peptide 1, synthetic peptide covering part of VDAC1]",–,0.448,0.443,–
"NAKIKTGYKR EHINLGCDMD (NAKIKTGYKREHINLGCDMD) [Peptide 12, synthetic peptide covering part of VDAC1]",–,0.345,0.375,–
"SLIGLGYTQT LKPGIKLTLS (SLIGLGYTQTLKPGIKLTLS) [Peptide 25, synthetic peptide covering part of VDAC1]",–,0.590,0.679,weak reaction
"SSFSPNTGKK NAKIKTGYKR (SSFSPNTGKKNAKIKTGYKR) [Peptide 11, synthetic peptide covering part of VDAC1]",–,0.319,0.361,–
"TAGNSNTRFG IAAKYQIDPD (TAGNSNTRFGIAAKYQIDPD) [Peptide 22, synthetic peptide covering part of VDAC1]",–,0.318,0.319,–
"TTKVTGSLET KYRWTEYGLT (TTKVTGSLETKYRWTEYGLT) [Peptide 6, synthetic peptide covering part of VDAC1]",–,0.358,0.363,–
"VGYKTDEFQL HTNVNDGTEF (VGYKTDEFQLHTNVNDGTEF) [Peptide 18, synthetic peptide covering part of VDAC1]",–,0.275,0.305,–
